Here are results for 16 compounds from ChEMBL document CHEMBL3085626, “Synthesis and evaluation of multi-target-directed ligands against Alzheimer's disease based on the fusion of donepezil and ebselen” (J Med Chem, 2013).

Data set [1] addresses Acetylcholinesterase (Homo sapiens, UniProt P22303). As to the kind of experiment: Inhibition of human erythrocyte AChE using acetylthiocholine chloride as substrate preincubated for 15 mins followed by substrate addition measured every 1 min by Ellman's method.
The target in data set [2] is T1, Acetylcholinesterase (Electrophorus electricus, UniProt O42275).
T1 sequence (O42275 whole entry): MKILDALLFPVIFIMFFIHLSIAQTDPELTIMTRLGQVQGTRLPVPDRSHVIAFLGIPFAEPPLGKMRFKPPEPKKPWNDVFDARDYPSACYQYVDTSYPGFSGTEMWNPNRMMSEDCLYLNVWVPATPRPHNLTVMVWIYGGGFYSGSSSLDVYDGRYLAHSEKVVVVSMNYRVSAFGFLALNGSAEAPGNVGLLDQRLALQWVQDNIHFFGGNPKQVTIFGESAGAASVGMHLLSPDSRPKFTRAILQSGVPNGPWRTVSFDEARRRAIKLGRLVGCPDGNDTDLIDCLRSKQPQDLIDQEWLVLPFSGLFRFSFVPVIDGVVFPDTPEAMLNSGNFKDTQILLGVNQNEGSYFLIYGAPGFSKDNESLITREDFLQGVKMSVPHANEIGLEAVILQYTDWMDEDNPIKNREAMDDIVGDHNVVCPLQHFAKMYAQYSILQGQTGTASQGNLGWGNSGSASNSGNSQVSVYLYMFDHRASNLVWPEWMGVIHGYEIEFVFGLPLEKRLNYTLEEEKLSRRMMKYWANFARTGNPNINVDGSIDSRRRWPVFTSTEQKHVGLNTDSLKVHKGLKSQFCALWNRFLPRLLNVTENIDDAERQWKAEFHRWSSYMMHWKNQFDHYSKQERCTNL
Description: Inhibition of electric eel AChE using acetylthiocholine chloride as substrate preincubated for 15 mins followed by substrate addition measured every 1 min by Ellman's method
The nature of another data set: in vitro. To be noted: PAMPA. Background: In PAMPA a lipid-coated filter parts donor from acceptor wells.
The target in another data set is Cholinesterase (Equus caballus, UniProt P81908).
Cholinesterase, sequence (P81908 whole entry): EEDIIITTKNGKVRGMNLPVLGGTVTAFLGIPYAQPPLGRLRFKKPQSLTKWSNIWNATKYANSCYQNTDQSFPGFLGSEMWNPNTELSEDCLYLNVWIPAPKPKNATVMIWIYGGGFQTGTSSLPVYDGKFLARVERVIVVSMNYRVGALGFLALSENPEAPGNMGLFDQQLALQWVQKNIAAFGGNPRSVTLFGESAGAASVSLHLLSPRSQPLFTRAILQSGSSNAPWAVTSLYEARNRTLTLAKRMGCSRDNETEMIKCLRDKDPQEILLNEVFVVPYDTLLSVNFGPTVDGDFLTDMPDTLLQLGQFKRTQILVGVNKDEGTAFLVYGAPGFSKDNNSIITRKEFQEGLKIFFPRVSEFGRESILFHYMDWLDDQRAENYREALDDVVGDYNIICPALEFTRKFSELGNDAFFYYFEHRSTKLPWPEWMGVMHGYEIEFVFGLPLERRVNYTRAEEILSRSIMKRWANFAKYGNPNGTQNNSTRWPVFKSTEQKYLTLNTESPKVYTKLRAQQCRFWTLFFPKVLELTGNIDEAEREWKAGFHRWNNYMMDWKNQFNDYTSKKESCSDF
For data set [3], the target named is T1, Acetylcholinesterase. As to the kind of experiment: […] inhibition of electric eel AChE using acetylthiocholine chloride as substrate preincubated for 15 mins followed by substrate addition by Lineweaver-Burk plot analysis.
Data set [4] has as its system Mus musculus. As to the kind of experiment: Acute toxicity in KM mouse assessed as effect on water consumption up to 2000 mg/kg, po after 4 hrs. The format is organism-based. Also on record: dose 2000 mg/kg, route oral. To be noted: in vivo.
In data set [5] the test system is Mus musculus. The experiment in a line: Acute toxicity in KM mouse assessed as effect on food consumption up to 2000 mg/kg, po after 4 hrs. Also on record: dose 2000 mg/kg, route oral. The class given is organism-based. The note with it: in vivo.
The target of data set [6] is Acetylcholinesterase (Electrophorus electricus) (UniProt O42275). As to the kind of experiment: Mixed-type inhibition of electric eel AChE using acetylthiocholine chloride as substrate preincubated for 15 mins followed by substrate addition by Lineweaver-Burk plot analysis.
Acetylcholinesterase (Electrophorus electricus), sequence (O42275 24-633 limits assumed): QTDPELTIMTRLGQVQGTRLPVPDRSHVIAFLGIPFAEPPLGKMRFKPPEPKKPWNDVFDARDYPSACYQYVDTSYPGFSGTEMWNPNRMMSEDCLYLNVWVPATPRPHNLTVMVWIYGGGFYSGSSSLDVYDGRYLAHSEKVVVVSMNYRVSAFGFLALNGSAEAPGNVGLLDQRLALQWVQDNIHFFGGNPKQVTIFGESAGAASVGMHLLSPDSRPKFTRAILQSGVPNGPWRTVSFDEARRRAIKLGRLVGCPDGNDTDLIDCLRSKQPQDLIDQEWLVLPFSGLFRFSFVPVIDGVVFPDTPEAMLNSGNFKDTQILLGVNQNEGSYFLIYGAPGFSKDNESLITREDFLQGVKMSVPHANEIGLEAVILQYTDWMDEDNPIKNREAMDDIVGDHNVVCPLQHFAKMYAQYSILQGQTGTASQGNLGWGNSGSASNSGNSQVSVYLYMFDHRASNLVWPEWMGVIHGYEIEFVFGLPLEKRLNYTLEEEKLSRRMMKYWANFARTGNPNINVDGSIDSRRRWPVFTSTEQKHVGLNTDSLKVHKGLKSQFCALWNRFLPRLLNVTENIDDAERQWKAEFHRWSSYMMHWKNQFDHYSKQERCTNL
The subject of data set [7] is Mus musculus. As to the kind of experiment: Acute toxicity in KM mouse assessed as mortality up to 2000 mg/kg, po after 24 hrs. The format is organism-based. Also on record: dose 2000 mg/kg, route oral. To be noted: in vivo.
Data set [8] deals with Mus musculus. As to the kind of experiment: Acute toxicity in KM mouse assessed as effect on body weight up to 2000 mg/kg, po after 4 hrs. The format is organism-based. The arrangement: dose 2000 mg/kg, route oral. The note with it: in vivo.
Data set [9] in a line: Acute toxicity in po dosed KM mouse measured for 14 days. The class given is organism-based. To be noted: in vivo.

Activity calls are given as the source filed them. The rule behind the calls is not given here.

Acetylcholinesterase (Homo sapiens, UniProt P22303), sequence (P22303 whole entry): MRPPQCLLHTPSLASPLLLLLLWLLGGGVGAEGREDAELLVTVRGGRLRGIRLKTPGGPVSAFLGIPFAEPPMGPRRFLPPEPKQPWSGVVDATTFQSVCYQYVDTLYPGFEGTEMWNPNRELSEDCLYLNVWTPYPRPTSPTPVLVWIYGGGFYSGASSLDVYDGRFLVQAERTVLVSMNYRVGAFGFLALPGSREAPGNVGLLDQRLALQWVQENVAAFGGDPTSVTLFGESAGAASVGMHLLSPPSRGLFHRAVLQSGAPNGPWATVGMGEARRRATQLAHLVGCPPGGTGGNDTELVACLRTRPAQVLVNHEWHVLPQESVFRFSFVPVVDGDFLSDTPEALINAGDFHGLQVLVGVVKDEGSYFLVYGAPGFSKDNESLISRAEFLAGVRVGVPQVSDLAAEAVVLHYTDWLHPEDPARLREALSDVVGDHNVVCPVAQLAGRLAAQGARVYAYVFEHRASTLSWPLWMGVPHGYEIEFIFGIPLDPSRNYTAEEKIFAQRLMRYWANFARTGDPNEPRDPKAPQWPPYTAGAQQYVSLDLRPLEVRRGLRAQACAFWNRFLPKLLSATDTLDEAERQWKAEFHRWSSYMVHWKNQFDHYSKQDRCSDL
Description for in vitro: Effective permeability of the compound at 5 mg/mL after 10 hrs by PAMPA

As to `COc1cc2[se]n(CCCC3CCN(Cc4ccccc4)CC3)c(=O)c2cc1OC`, the IC50 (usually the concentration at which inhibition is half-maximal) came out at 0.231 µM at Acetylcholinesterase [1], 0.072 µM against Acetylcholinesterase [2] and 1.5 µM against Cholinesterase. Besides, the Papp (in general, a coefficient for how fast a substance crosses the barrier) at 10 h, 5 mg/mL in “in vitro” turned out to be 10.3 ×10⁻⁶ cm/s.

For the compound `COc1cc2[se]n(CCC3CCN(Cc4ccccc4)CC3)c(=O)c2cc1OC`, on Acetylcholinesterase [3], the Ki – broadly, the equilibrium dissociation constant of an inhibitor or competing ligand from its target – was determined as 0.017 µM. In addition, the Activity entry in the data set on Mus musculus [4], in the data set with Mus musculus [5], in the data set on Mus musculus [7] and with Mus musculus [8] was “Non-toxic” throughout. For the same compound, in data set [6], the inhibition entry was “Active”. Besides, the concentration for half-maximal inhibition (IC50) is 0.097 µM against Acetylcholinesterase [1], 0.042 µM against Acetylcholinesterase [2] and 1.59 µM at Cholinesterase. In data set [9], the MTD at 336 h is 2000 mg/kg. Besides, the Papp at 10 h, 5 mg/mL in the data set “in vitro” is 8.6 ×10⁻⁶ cm/s.

Consider `O=c1c2ccc(Cl)cc2[se]n1CCC1CCN(Cc2ccccc2)CC1`, for which the IC50 against Acetylcholinesterase [2] came to 0.206 µM; against Cholinesterase, 2.35 µM.

`COc1cc2[se]n(C3CCN(Cc4ccccc4)CC3)c(=O)c2cc1OC`: the IC50 against Acetylcholinesterase [2] was found to be 11.8 µM; on Cholinesterase, 9.46 µM.

As for `COc1cc2c(cc1OC)[Se](=O)N(CCC1CCN(Cc3ccccc3)CC1)C2=O` (stereo unspecified), the IC50 against Acetylcholinesterase [1] was found to be 0.163 µM; against Acetylcholinesterase [2], 0.043 µM; on Cholinesterase, 1.36 µM.

Consider `O=c1c2ccccc2[se]n1CC1CCN(Cc2ccccc2)CC1`, for which the values for the IC50 against Acetylcholinesterase [2] and at Cholinesterase were 19.8 µM and 3.63 µM, respectively.

With `O=c1c2ccc(F)cc2[se]n1C1CCN(Cc2ccccc2)CC1`, the 50% inhibitory concentration (IC50) against Acetylcholinesterase [2] was determined as 19.7 µM; on Cholinesterase, 10.6 µM.

As for `COc1cc2[se]n(CCCCC3CCN(Cc4ccccc4)CC3)c(=O)c2cc1OC`, the figures for the IC50 against Acetylcholinesterase [1], against Acetylcholinesterase [2] and against Cholinesterase were 0.103 µM, 0.038 µM and 0.517 µM, respectively. This compound displayed a Papp at 10 h, 5 mg/mL in the data set “in vitro” of 15.8 ×10⁻⁶ cm/s.

Take `O=c1c2ccc(F)cc2[se]n1CCC1CCN(Cc2ccccc2)CC1`: the IC50 was determined as 0.224 µM on Acetylcholinesterase [2] and 3.67 µM against Cholinesterase.

As to `COc1cc2[se]n(CC3CCN(Cc4ccccc4)CC3)c(=O)c2cc1OC`, the IC50 at Acetylcholinesterase [2] came to 4.23 µM; against Cholinesterase, 3.92 µM.

For `O=c1c2ccccc2[se]n1-c1ccccc1` [EBSELEN], the IC50 stood at 41 µM against Acetylcholinesterase [2] and 10.4 µM against Cholinesterase.

As for `O=c1c2ccccc2[se]n1C1CCN(Cc2ccccc2)CC1`, the IC50 at Acetylcholinesterase [2] came out at 17.6 µM; on Cholinesterase, 8.32 µM.

Take `O=c1c2ccc(Cl)cc2[se]n1CC1CCN(Cc2ccccc2)CC1`: the IC50 stood at 6.16 µM against Acetylcholinesterase [2] and 2.3 µM against Cholinesterase.

Consider `O=c1c2ccccc2[se]n1CCC1CCN(Cc2ccccc2)CC1`, for which the results for the IC50 against Acetylcholinesterase [2] and at Cholinesterase were 0.382 µM and 2.13 µM, respectively.

In the case of `O=c1c2ccc(Cl)cc2[se]n1C1CCN(Cc2ccccc2)CC1`, the values for the IC50 on Acetylcholinesterase [2] and against Cholinesterase were 10.1 µM and 21.5 µM, respectively.

As for `O=c1c2ccc(F)cc2[se]n1CC1CCN(Cc2ccccc2)CC1`, the IC50 was 12.3 µM on Acetylcholinesterase [2] and 3.46 µM against Cholinesterase.
